The source of these data is BindingDB's records for doi:10.1021/ja0727520 (University of California Berkeley, 2007).

SMILES strings stand for the structures. Where only a bound is given, the exact number is not on record here.

Test in all cases: Determination of Inhibitor Ki
Common to all, as to conditions: pH 7.4; 22 °C

The target of assay [1] is T1, TYR_PHOSPHATASE_2 domain-containing protein (Mycobacterium tuberculosis (strain CDC 1551 / Oshkosh), UniProt P96830).
T1 sequence (P96830 whole entry): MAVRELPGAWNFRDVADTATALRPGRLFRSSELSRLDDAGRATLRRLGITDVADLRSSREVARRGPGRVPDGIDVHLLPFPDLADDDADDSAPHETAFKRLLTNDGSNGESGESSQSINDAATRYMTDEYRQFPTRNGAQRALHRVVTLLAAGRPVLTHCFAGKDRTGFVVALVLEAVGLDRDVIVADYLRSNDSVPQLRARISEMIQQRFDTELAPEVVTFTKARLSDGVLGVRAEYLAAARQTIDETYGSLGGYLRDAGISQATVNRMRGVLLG
Description: (§1) The initial rate data collected was used for determination of Ki values. For Ki determination, the kinetic values were obtained directly from nonlinear regression of substrate-velocity curves in the presence of various concentrations of inhibitor.

Assay [2] addresses T2, Receptor-type tyrosine-protein phosphatase C (Homo sapiens, UniProt P08575).
T2 sequence (P08575 whole entry): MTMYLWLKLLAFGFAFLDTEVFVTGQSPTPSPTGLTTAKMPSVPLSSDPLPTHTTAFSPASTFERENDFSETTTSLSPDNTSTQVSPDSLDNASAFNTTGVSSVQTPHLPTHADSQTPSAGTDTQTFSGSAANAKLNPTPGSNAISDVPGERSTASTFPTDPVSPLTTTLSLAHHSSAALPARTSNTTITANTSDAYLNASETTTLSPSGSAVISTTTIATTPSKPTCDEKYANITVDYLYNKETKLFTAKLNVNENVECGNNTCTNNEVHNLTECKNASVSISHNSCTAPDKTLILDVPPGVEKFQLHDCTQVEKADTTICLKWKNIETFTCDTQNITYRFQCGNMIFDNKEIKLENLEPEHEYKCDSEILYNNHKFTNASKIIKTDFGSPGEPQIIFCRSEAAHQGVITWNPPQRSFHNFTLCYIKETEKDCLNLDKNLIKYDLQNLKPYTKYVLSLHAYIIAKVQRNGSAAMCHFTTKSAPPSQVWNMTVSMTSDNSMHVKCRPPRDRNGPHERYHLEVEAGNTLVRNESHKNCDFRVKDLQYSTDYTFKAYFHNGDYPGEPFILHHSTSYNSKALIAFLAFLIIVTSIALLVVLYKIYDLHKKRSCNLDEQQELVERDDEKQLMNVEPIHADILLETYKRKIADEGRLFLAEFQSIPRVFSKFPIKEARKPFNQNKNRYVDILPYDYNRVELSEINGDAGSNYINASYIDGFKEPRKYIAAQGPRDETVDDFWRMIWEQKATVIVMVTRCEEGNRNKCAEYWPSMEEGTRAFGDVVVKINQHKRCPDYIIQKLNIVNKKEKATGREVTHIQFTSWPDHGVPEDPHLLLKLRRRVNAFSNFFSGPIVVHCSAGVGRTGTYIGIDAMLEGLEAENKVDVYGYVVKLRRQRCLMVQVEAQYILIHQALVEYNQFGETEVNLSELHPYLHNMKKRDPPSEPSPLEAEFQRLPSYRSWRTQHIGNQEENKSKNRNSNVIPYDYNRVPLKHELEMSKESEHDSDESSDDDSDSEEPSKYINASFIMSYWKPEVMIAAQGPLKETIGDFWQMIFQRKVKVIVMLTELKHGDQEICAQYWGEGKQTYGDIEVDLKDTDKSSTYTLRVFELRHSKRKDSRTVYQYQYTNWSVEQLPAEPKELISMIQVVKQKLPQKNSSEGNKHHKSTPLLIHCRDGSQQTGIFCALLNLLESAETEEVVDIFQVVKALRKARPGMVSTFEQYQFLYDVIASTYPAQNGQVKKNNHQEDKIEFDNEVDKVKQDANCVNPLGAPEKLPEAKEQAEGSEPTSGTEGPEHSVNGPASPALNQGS
Description: as §1

In assay [3] the target is Dual specificity protein phosphatase 3 (Homo sapiens, UniProt P51452).
Description: as §1
Assay [4] deals with T3, Tyrosine-protein phosphatase non-receptor type 2 (Homo sapiens, UniProt P17706).
T3 sequence (P17706 whole entry): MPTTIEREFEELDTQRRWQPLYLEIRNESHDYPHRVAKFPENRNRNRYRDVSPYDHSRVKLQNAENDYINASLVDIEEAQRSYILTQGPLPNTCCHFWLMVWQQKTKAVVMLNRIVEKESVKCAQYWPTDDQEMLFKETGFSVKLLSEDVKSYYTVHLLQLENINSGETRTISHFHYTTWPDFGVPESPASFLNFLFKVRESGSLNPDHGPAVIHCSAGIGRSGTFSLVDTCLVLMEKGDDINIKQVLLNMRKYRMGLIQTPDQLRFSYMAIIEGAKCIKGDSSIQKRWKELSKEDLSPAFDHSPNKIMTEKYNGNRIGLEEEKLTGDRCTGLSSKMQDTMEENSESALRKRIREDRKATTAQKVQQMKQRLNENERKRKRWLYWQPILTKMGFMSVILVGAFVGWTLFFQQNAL
Description: as §1

The target in assay [5] is T4, Low molecular weight protein-tyrosine phosphatase A (Mycobacterium tuberculosis (strain ATCC 25618 / H37Rv), UniProt P9WIA1).
T4 sequence (P9WIA1 whole entry): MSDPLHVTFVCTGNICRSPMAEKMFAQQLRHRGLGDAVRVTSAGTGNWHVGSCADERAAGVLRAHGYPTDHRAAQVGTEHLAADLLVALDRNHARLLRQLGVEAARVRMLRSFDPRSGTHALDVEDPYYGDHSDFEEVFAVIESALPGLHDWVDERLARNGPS
Description: as §1

The target in assay [6] is Receptor-type tyrosine-protein phosphatase F (Homo sapiens, UniProt P10586).
Receptor-type tyrosine-protein phosphatase F, sequence (P10586 whole entry): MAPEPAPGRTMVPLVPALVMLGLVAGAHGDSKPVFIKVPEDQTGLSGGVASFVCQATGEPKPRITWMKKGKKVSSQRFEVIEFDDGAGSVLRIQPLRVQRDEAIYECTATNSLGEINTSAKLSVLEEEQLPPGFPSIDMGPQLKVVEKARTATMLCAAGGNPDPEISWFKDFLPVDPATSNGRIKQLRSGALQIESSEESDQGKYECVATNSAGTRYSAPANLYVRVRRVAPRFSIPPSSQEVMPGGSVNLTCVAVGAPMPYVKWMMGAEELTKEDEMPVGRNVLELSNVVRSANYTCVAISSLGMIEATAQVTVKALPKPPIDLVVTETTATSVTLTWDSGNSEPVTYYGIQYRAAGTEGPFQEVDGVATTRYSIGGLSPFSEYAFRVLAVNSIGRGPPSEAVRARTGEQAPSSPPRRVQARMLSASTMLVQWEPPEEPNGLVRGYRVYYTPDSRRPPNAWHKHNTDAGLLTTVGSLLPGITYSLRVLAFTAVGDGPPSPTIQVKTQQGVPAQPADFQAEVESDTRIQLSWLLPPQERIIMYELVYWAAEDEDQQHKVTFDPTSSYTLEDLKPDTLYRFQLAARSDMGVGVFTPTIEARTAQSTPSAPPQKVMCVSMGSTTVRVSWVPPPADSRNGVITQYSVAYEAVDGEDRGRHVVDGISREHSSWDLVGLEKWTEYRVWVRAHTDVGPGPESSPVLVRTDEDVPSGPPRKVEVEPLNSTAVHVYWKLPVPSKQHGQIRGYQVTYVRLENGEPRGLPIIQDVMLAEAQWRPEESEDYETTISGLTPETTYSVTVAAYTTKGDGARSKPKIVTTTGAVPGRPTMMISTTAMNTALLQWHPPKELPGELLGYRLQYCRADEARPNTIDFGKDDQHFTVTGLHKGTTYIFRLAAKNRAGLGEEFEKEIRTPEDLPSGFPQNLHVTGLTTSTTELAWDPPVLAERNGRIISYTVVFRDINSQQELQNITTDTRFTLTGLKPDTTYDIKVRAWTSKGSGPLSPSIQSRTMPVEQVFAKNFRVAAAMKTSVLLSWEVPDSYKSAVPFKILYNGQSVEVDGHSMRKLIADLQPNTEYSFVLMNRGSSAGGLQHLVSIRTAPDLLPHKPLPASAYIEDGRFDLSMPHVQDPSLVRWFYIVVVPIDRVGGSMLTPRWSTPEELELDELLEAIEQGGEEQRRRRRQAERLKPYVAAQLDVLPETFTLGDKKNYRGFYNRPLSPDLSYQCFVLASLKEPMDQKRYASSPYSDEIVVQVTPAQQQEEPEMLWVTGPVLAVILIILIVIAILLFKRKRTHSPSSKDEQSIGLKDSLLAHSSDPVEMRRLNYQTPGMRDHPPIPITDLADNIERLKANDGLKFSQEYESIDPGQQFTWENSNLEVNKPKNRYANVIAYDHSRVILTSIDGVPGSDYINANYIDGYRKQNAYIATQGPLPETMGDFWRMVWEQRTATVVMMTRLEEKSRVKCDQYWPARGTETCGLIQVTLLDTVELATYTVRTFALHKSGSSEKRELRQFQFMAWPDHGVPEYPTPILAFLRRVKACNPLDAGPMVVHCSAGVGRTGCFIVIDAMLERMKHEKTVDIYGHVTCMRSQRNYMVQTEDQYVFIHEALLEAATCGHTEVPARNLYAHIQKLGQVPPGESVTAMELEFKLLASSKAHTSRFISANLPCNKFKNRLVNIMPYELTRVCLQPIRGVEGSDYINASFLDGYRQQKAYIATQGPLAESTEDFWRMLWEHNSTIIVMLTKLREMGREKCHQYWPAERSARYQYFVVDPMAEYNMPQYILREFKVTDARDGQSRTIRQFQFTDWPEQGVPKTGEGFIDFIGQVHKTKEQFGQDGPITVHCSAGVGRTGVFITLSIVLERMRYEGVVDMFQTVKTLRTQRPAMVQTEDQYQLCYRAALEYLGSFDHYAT
Description: as §1

Dual specificity protein phosphatase 3, sequence (P51452 whole entry): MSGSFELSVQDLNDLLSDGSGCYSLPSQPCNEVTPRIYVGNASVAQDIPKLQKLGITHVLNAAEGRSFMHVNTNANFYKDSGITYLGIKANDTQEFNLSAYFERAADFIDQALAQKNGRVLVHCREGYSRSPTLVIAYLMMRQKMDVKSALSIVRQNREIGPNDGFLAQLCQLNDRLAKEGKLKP

Turning to `CC(C)c1cc(-c2cccc(C(F)(F)F)c2)ccc1-c1cc(C(=O)O)no1` [5-[2-(propan-2-yl)-4-[3-(trifluoromethyl)phenyl]phenyl]-1,2-oxazole-3-carboxylic acid], in assay [1], the Ki worked out at 0.85 µM.

On to `O=C(O)c1cc(-c2ccc(-c3ccc(F)c(C(F)(F)F)c3)cc2C2CCCCC2)on1` [5-{2-cyclohexyl-4-[4-fluoro-3-(trifluoromethyl)phenyl]phenyl}-1,2-oxazole-3-carboxylic acid], for which the inhibitory constant (Ki) is 7.7 µM in assay [2]; greater than 50 µM in assay [3]; greater than 50 µM in assay [4]; greater than 50 µM in assay [5]; 21.4 µM in assay [6].

Molecule `O=C(O)c1cc(-c2ccc(-c3cccc(C(F)(F)F)c3)cc2)on1` [5-{4-[3-(trifluoromethyl)phenyl]phenyl}-1,2-oxazole-3-carboxylic acid] returned an inhibition constant Ki in assay [1] of 2.5 µM.

Molecule `O=C1CC(c2ccc(-c3cccc(C(F)(F)F)c3)cc2)S(=O)(=O)N1` (centres undefined) [5-{4-[3-(trifluoromethyl)phenyl]phenyl}-1,2-thiazolidine-1,1,3-trione] displayed a Ki in assay [1] of 8.8 µM.

`CC(C)c1cc(-c2ccc(F)c(C(F)(F)F)c2)ccc1-c1cc(C(=O)O)no1` [5-{4-[4-fluoro-3-(trifluoromethyl)phenyl]-2-(propan-2-yl)phenyl}-1,2-oxazole-3-carboxylic acid]: the affinity in assay [1], expressed as Ki, was 0.5 µM.

By Ki is commonly meant the dissociation constant of the complex between target and ligand, obtained from inhibition or displacement.
